Experimental data taken from PMC6874406 (Journal of photochemistry and photobiology. A, Chemistry, 2019).
Like-named read-outs stand apart in the source and are kept apart here.

How the values were obtained:
[1] = molecular target: T1, human serum albumin (HSA) (Homo sapiens, UniProt P02768); test: fluorescence titration; format: binding
[2] = molecular target: T1, human serum albumin (HSA); test: fluorescence titration; format: binding; remark: listed apart in the source

T1 sequence (P02768 25-609): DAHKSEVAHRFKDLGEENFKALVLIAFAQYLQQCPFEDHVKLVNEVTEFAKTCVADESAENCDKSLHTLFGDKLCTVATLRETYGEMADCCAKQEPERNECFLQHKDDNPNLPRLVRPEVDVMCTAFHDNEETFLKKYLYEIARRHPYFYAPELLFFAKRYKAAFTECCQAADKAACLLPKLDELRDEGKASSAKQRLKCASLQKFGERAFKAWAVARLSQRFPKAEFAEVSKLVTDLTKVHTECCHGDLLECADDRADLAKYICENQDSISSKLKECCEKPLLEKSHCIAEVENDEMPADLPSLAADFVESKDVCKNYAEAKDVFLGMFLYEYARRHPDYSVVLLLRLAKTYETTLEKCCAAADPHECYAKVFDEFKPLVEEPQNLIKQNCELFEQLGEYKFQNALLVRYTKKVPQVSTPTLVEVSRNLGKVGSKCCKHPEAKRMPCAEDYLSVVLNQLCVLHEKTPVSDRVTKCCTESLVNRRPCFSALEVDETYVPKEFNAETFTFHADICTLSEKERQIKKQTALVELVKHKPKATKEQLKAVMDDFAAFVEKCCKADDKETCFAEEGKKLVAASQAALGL

Row | Compound | Kd [1] [µM] | Kd [2] [µM]
1 | COc1cc(/C=C/C2=C(C#N)C(=C(C#N)C#N)OC2(C)C)cc(OC)c1O [compound 1, (E)-2-(3-cyano-4-(4-hydroxy-3,5-dimethoxystyryl)-5,5-dimethylfuran-2(5H)-ylidene)malononitrile] | 6.67 | 
2 | CC1(C)OC(=C(C#N)C#N)C(C#N)=C1/C=C/c1ccc(O)cc1 [compound 2, fluorophore 2] |  | 5.26
